Values quoted from earlier work in patent publication US20100047334A1, “PH SENSITIVE LIPOSOME COMPOSITIONS FOR CONTROLLING SURFACE TOPOGRAPHY AND BINDING REACTIVITY IN FUNCTIONALIZED LIPOSOMES” (priority 2006, published 2010).
Read-outs that look alike come from different tables or passages of the source.

How the values were obtained:
[1] = target: streptavidin (Streptomyces avidinii, UniProt P22629)
[2] = highest reported value; 0.1 ionic strength; dimyristoyl- and dipalmitoyl-phosphatidylserine membranes

Chain of streptavidin (P22629 25-183): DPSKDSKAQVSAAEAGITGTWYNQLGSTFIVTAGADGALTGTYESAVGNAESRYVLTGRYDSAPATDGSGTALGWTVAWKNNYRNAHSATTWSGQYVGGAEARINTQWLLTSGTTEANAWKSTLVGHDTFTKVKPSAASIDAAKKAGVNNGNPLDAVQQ

CCCCCCCCCCCCCCCC(=O)OC[C@H](COP(=O)([O-])OCC[N+](C)(C)C)OC(=O)CCCCCCCCCCCCCCC [DPPC lipids, 1,2-Dipalmitoyl-sn-Glycero-3-Phosphocholine]
lateral diffusion coefficient (at 37° C. (gel)): 10^−10 cm^2/s
lateral diffusion coefficient (in the fluid state): 5×10^−8 cm^2/s

O=C(O)CCCC[C@@H]1SC[C@@H]2NC(=O)N[C@@H]21 [biotin]
Ka of the biotin-streptavidin link [1]: 10^13 M^−1

phosphatidylserine
apparent pKa of phosphatidylserine's carboxyl group [2]: 5.5
